Test results reported in patent US8173808B2, “Substituted naphthalenyl-pyrimidine compounds” (ArQule, Inc., priority 2009, dated 2012).

Experiments:
MDA-MB-231 = test: MTS assay, MDA-MB-231; type: cell-based; conditions: Homo sapiens, 72 hours, 1 Percent FBS
Description: (§1) Cells were maintained at 37° C., 5% CO2 in DMEM media supplemented with 1% fetal bovine serum, penicillin/streptomycin and fungizone (Invitrogen). Cells were seeded into 96-well tissue culture plates at 3000 per well and cultured at 37° C. for 18 hours. Test compounds were dissolved and diluted to 300× in DMSO then diluted 1:40 in DMEM. Cells were incubated with test compounds for 72 hours followed by incubation with tetrazolium compound (3-(4,5-dimethylthiazol-2-yl)-5-(3-carboxymethoxyphenyl)-2-(4-sulfophenyl)-2H-tetrazolium, inner salt; MTS) and the electron coupling reagent, phenazine methosulfate (PMS) for 4 hours. […] The ability of compounds to inhibit cell growth in this assay is correlated with the reduction of dehydrogenase enzyme activity found in metabolically active cells. The measurement of the absorbance of the formazan was assessed using a Victor (Perkin Elmer) microplate reader at 492 nm. The calculated IC50 value is the concentration of the test compound that causes a 50% decrease in the absorbance.

DLD-1 = test: MTS assay, DLD-1; type: cell-based; conditions: Homo sapiens, 72 hours, 1 Percent FBS
Description: as §1

Row | Structure (SMILES) | inhibition at 10 µM (MDA-MB-231) | inhibition at 10 µM (DLD-1)
1 | CNc1nccc(-c2cc(NC(=O)CN3CCN(CCOC)CC3)c3cc(OC)ccc3c2)n1 [Compound 59, 2-[4-(2-methoxyethyl)piperazin-1-yl]-N-{7-methoxy-3-[2-(methylamino)pyrimidin-4-yl]-1-naphthyl}acetamide] | 98% | 97%
2 | CNc1nccc(-c2cc(NC(=O)CN3CCN(CCN4CCCC4)CC3)c3cc(OC)ccc3c2)n1 [Compound 64, N-{7-methoxy-3-[2-(methylamino)pyrimidin-4-yl]-1-naphthyl}-2-[4-(2-pyrrolidin-1-ylethyl)piperazin-1-yl]acetamide] | 71% | 89%
3 | CNc1nccc(-c2cc(NC(=O)CN3CCN(CCCN(C)C)CC3)c3cc(OC)ccc3c2)n1 [Compound 65, 2-{4-[3-(dimethylamino)propyl]piperazin-1-yl}-N-{7-methoxy-3-[2-(methylamino)pyrimidin-4-yl]-1-naphthyl}acetamide] | 98% | 98%
4 | CNc1nccc(-c2cc(NC(=O)CN3CCN(CCN(C)C)CC3)c3cc(OC)ccc3c2)n1 [Compound 67, 2-{4-[2-(dimethylamino)ethyl]piperazin-1-yl}-N-{7-methoxy-3-[2-(methylamino)pyrimidin-4-yl]-1-naphthyl}acetamide] | 53% | 31%
5 | CCN(CC)CCCCNCC(=O)Nc1cc(-c2ccnc(NC)n2)cc2ccc(OC)cc12 [Compound 73, N~2~-[4-(diethylamino)butyl]-N-{7-methoxy-3-[2-(methylamino)pyrimidin-4-yl]-1-naphthyl}glycinamide] | 98% | 98%
6 | CNc1nccc(-c2cc(NC(=O)CN3CCN(c4nccc(C(F)(F)F)n4)CC3)c3cc(OC)ccc3c2)n1 [Compound 75, N-{7-methoxy-3-[2-(methylamino)pyrimidin-4-yl]-1-naphthyl}-2-{4-[4-(trifluoromethyl)pyrimidin-2-yl]piperazin-1-yl}acetamide] | 98% | 97%
7 | CNc1nccc(-c2cc(NC(=O)CNCCN3CCOCC3)c3cc(OC)ccc3c2)n1 [Compound 78, N-{7-methoxy-3-[2-(methylamino)pyrimidin-4-yl]-1-naphthyl}-N~2~-(2-morpholin-4-ylethyl)glycinamide] | 48% | 55%
8 | CNc1nccc(-c2cc(NC(=O)CN3CCN(CC(=O)N(C)c4ccccc4)CC3)c3cc(OC)ccc3c2)n1 [Compound 79, 2-{4-[2-({7-methoxy-3-[2-(methylamino)pyrimidin-4-yl]-1-naphthyl}amino)-2-oxoethyl]piperazin-1-yl}-N-methyl-N-phenylacetamide] | 99% | 98%
9 | CNc1nccc(-c2cc(NC(=O)CN3CCN(CCn4cccc4)CC3)c3cc(OC)ccc3c2)n1 [Compound 82, N-{7-methoxy-3-[2-(methylamino)pyrimidin-4-yl]-1-naphthyl}-2-{4-[2-(1H-pyrrol-1-yl)ethyl]piperazin-1-yl}acetamide] | 80% | 96%
10 | CNc1nccc(-c2cc(NC(=O)CN3CCN(C4CCN(C)CC4)CC3)c3cc(OC)ccc3c2)n1 [Compound 83, N-{7-methoxy-3-[2-(methylamino)pyrimidin-4-yl]-1-naphthyl}-2-[4-(1-methylpiperidin-4-yl)piperazin-1-yl]acetamide] | 99% | 99%
11 | CNc1nccc(-c2cc(NC(=O)CNCCOC)c3cc(OC)ccc3c2)n1 [Compound 85, N~2~-(2-methoxyethyl)-N-{7-methoxy-3-[2-(methylamino)pyrimidin-4-yl]-1-naphthyl}glycinamide] | 90% | 98%
12 | COc1ccc2cc(-c3ccnc(NCCN(C)C)n3)cc(NC(=O)OC(C)(C)C)c2c1 [Compound 86, tert-butyl [3-(2-{[2-(dimethylamino)ethyl]amino}pyrimidin-4-yl)-7-methoxy-1-naphthyl]carbamate] | 67% | 31%
13 | COc1ccc(CCNc2nccc(-c3cc(NC(=O)OC(C)(C)C)c4cc(OC)ccc4c3)n2)cc1 [Compound 88, tert-butyl [7-methoxy-3-(2-{[2-(4-methoxyphenyl)ethyl]amino}pyrimidin-4-yl)-1-naphthyl]carbamate] | 64% | 90%
14 | CCN1CCCC(Nc2nccc(-c3cc(NC(=O)OC(C)(C)C)c4cc(OC)ccc4c3)n2)C1 (stereo not shown) [Compound 91, tert-butyl (3-{2-[(1-ethylpiperidin-3-yl)amino]pyrimidin-4-yl}-7-methoxy-1-naphthyl)carbamate] | 85% | 97%
15 | COc1ccc2cc(-c3ccnc(NCCc4ccccc4OC)n3)cc(NC(=O)OC(C)(C)C)c2c1 [Compound 92, tert-butyl [7-methoxy-3-(2-{[2-(2-methoxyphenyl)ethyl]amino}pyrimidin-4-yl)-1-naphthyl]carbamate] | 99% | 98%
16 | COc1ccc2cc(-c3ccnc(NCc4cncn4C)n3)cc(NC(=O)OC(C)(C)C)c2c1 [Compound 93, tert-butyl [7-methoxy-3-(2-{[(1-methyl-1H-imidazol-5-yl)methyl]amino}pyrimidin-4-yl)-1-naphthyl]carbamate] | 72% | 96%
17 | COc1ccc2cc(-c3ccnc(NCCc4cccc(OC)c4OC)n3)cc(NC(=O)OC(C)(C)C)c2c1 [Compound 94, tert-butyl [3-(2-{[2-(2,3-dimethoxyphenyl)ethyl]amino}pyrimidin-4-yl)-7-methoxy-1-naphthyl]carbamate] | 35% | 37%
18 | COc1ccc2cc(-c3ccnc(NCCc4cccnc4)n3)cc(NC(=O)OC(C)(C)C)c2c1 [Compound 98, tert-butyl (7-methoxy-3-{2-[(2-pyridin-3-ylethyl)amino]pyrimidin-4-yl}-1-naphthyl)carbamate] | 86% | 98%
19 | COc1cccc(CNc2nccc(-c3cc(NC(=O)OC(C)(C)C)c4cc(OC)ccc4c3)n2)c1 [Compound 99, tert-butyl (7-methoxy-3-{2-[(3-methoxybenzyl)amino]pyrimidin-4-yl}-1-naphthyl)carbamate] | 98% | 97%
20 | COCCNc1nccc(-c2cc(NC(=O)OC(C)(C)C)c3cc(OC)ccc3c2)n1 [Compound 100, tert-butyl (7-methoxy-3-{2-[(2-methoxyethyl)amino]pyrimidin-4-yl}-1-naphthyl)carbamate] | 31% | 70%
21 | COc1ccc2cc(-c3ccnc(NC4CCN(Cc5ccccc5)CC4)n3)cc(NC(=O)OC(C)(C)C)c2c1 [Compound 101, tert-butyl (3-{2-[(1-benzylpiperidin-4-yl)amino]pyrimidin-4-yl}-7-methoxy-1-naphthyl)carbamate] | 98% | 96%
22 | COc1ccc2cc(-c3ccnc(NC4CC(C)(C)N(C)C(C)(C)C4)n3)cc(NC(=O)OC(C)(C)C)c2c1 [Compound 103, tert-butyl (7-methoxy-3-{2-[(1,2,2,6,6-pentamethylpiperidin-4-yl)amino]pyrimidin-4-yl}-1-naphthyl)carbamate] | 89% | 74%
23 | COc1ccc(CNc2nccc(-c3cc(NC(=O)OC(C)(C)C)c4cc(OC)ccc4c3)n2)cc1 [Compound 104, tert-butyl (7-methoxy-3-{2-[(4-methoxybenzyl)amino]pyrimidin-4-yl}-1-naphthyl)carbamate] | 30% | 48%
24 | COc1ccc2cc(-c3ccnc(NCC(C)(C)CN(C)C)n3)cc(NC(=O)OC(C)(C)C)c2c1 [Compound 105, tert-butyl [3-(2-{[3-(dimethylamino)-2,2-dimethylpropyl]amino}pyrimidin-4-yl)-7-methoxy-1-naphthyl]carbamate] | 89% | 84%
25 | COc1ccc2cc(-c3ccnc(NC4CCN(C)CC4)n3)cc(N3CCNCC3)c2c1 [Compound 116, 4-(6-methoxy-4-piperazin-1-yl-2-naphthyl)-N-(1-methylpiperidin-4-yl)pyrimidin-2-amine] | 97% | 97%
26 | COc1ccc2cc(-c3ccnc(NC4CCN(Cc5ccccc5)CC4)n3)cc(N3CCNCC3)c2c1 [Compound 117, N-(1-benzylpiperidin-4-yl)-4-(6-methoxy-4-piperazin-1-yl-2-naphthyl)pyrimidin-2-amine] | 97% | 97%
27 | COc1ccc2cc(-c3ccnc(NC4CC(C)(C)N(C)C(C)(C)C4)n3)cc(N3CCNCC3)c2c1 [Compound 118, 4-(6-methoxy-4-piperazin-1-yl-2-naphthyl)-N-(l,2,2,6,6-pentamethylpiperidin-4-yl)pyrimidin-2-amine] | 96% | 96%
28 | COCCNc1nccc(-c2cc(N3CCNCC3)c3cc(OC)ccc3c2)n1 [Compound 119, N-(2-methoxyethyl)-4-(6-methoxy-4-piperazin-1-yl-2-naphthyl)pyrimidin-2-amine] | 93% | 94%
29 | COc1ccc2cc(-c3ccnc(NCc4ccccn4)n3)cc(N3CCNCC3)c2c1 [Compound 120, 4-(6-methoxy-4-piperazin-1-yl-2-naphthyl)-N-(pyridin-2-ylmethyl)pyrimidin-2-amine] | 78% | 83%
